What all share (assay): inhibition of tumour cell growth, NCI panel, 48 h
The test system of assay [1] is SK-MEL-2.
Assay [2] has as its system KM12.
The test system of assay [3] is IGROV-1.
Assay [4] concerns SNB-75.
Assay [5] relates to EKVX.
Assay [6] concerns HCC 2998.
Assay [7] relates to HL-60.
For assay [8], the system named is TK-10.
Assay [9] has as its system COLO 205.
In assay [10] the test system is HCT-15.
Assay [11] relates to OVCAR-4.
Assay [12] has as its system SK-OV-3.
Assay [13] deals with K562.
Assay [14] deals with A549.
The test system of assay [15] is SF-539.
Assay [16] relates to UACC-257.
Assay [17] concerns NCI-H226.
Assay [18] has as its system ACHN.
Assay [19] relates to NCI-H522.
Assay [20] has as its system UACC-62.

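96-well plates; 48 h exposure; 5 concentrations. Endpoints by linear interpolation between flanking doses. Not reached: highest tested concentration assigned. GI50 marks 50% less growth.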 Active and inactive are the calls of the source. Rule as the data show it: active = GI50 up to about 1.1 µM and inactive = higher.

`CNc1ccccc1-c1nc2ccccc2c(=O)o1`: the GI50 in [1] was > 100 µM (inactive); in assay [2], > 100 µM (inactive); in assay [3], 74.1 µM (inactive); in assay [4] it was 27.4 µM (inactive); in assay [5], > 100 µM (inactive); in [6], > 100 µM (inactive). Further, the GI50 was > 100 µM (inactive) in assay [7]; > 100 µM (inactive) in [8]; > 100 µM (inactive) in [9]; greater than 100 µM in assay [10]; > 100 µM (inactive) in [11]; > 100 µM (inactive) in assay [12]. The GI50 in [13] was > 100 µM (inactive); in [14], > 100 µM (inactive); in assay [15], 35 µM (inactive); in assay [16], > 100 µM (inactive); in assay [17], > 100 µM (inactive); in assay [18], > 100 µM (inactive).
Consider `O=c1[nH]c(-c2ccccc2)nc2cc([N+](=O)[O-])c(/C(Cl)=C/c3ccccc3)cc12`, for which the GI50 in [1] was 21.9 µM (inactive); in assay [2], 26.2 µM (inactive); in assay [3] it was 55 µM (inactive); in assay [19], 17.3 µM (inactive); in [4] it was 22.3 µM (inactive); in [5] it was 46.5 µM (inactive). Besides, the GI50 is > 100 µM (inactive) in [6]; 27.7 µM (inactive) in [8]; 21.5 µM (inactive) in assay [9]; 7.82 µM in assay [10]; 18.3 µM (inactive) in [11]; 27.3 µM (inactive) in assay [12]. Moreover, the GI50 in [13] is 7.5 µM (inactive); in assay [14] it was 23.2 µM (inactive); in assay [15] it was 25.2 µM (inactive); in [16], 16.1 µM (inactive); in assay [20], 15.1 µM (inactive); in assay [17], > 100 µM (inactive). For the same compound, the GI50 in assay [18] is 68.2 µM (inactive).
As for `N[C@@H](CSCSC[C@H](N)C(=O)O)C(=O)O`, the GI50 in assay [1] is > 225 µM (inactive); in assay [2], 126 µM (inactive); in assay [3], > 225 µM (inactive); in [19], > 225 µM (inactive); in [4], > 225 µM (inactive); in assay [5], > 225 µM (inactive). The GI50 is > 225 µM (inactive) in assay [6]; 185 µM (inactive) in [7]; > 225 µM (inactive) in [9]; greater than 225 µM in [10]; > 225 µM (inactive) in assay [11]; > 225 µM (inactive) in assay [12]. Further, the GI50 in assay [13], in assay [14], in [15], in assay [16], in [20] and in assay [17] was > 225 µM (inactive) in each case.
As for `CCOC(=O)/C=C1/Oc2ccccc2C1(C)O` (stereo unspecified), the GI50 in [1], in [2], in [3], in assay [19], in assay [4] and in assay [5] was > 100 µM (inactive) each time. The GI50 is > 100 µM (inactive) in [6]; > 100 µM (inactive) in [7]; > 100 µM (inactive) in assay [8]; > 100 µM (inactive) in [9]; greater than 100 µM in [10]; > 100 µM (inactive) in assay [11]. The GI50 in [12], in [13], in assay [14], in [16], in assay [20] and in assay [17] was > 100 µM (inactive) in each case. For the same compound, in assay [18], the GI50 was > 100 µM (inactive).
On to `CC(=O)OC/C=C\Cn1ncc(=O)[nH]c1=O`, for which the GI50 is 18.1 µM (inactive) in assay [1]; 17 µM (inactive) in assay [2]; 17.9 µM (inactive) in [3]; 16.1 µM (inactive) in assay [19]; 16.7 µM (inactive) in assay [4]; 20.3 µM (inactive) in assay [5]. For the same compound, the GI50 in assay [6] was 19 µM (inactive); in assay [7], 11.3 µM (inactive); in assay [9], 16 µM (inactive); in assay [10] it was 19.2 µM; in assay [13] it was 23 µM (inactive); in [14], 22.9 µM (inactive). The GI50 was 18.2 µM (inactive) in assay [15], 18 µM (inactive) in assay [17] and 21.6 µM (inactive) in [18].
Consider `CN(C)C(=O)C1CCC(=C2C(=O)OC(C)(C)OC2=O)N1C` (stereo unspecified), for which the GI50 in assay [1], in assay [2], in assay [3], in assay [19], in assay [4] and in assay [5] was > 100 µM (inactive) in each case. For the same compound, the GI50 is > 100 µM (inactive) in assay [6]; > 100 µM (inactive) in assay [8]; > 100 µM (inactive) in assay [9]; greater than 100 µM in assay [10]; > 100 µM (inactive) in assay [11]; > 100 µM (inactive) in assay [12]. In addition, the GI50 in assay [13], in assay [14], in assay [15], in assay [16], in assay [20] and in [17] was > 100 µM (inactive) each time. Besides, in [18], the GI50 is > 100 µM (inactive).
Take `CC(C)=C1C2CC3(C)CCC2(C)CCC13.CC1=CCC2C3(C)CCC2(C(C)C)C1C3` (stereo unspecified): the GI50 in assay [1] is 17.5 µM (inactive); in assay [2] it was 19.5 µM (inactive); in [3], 16.5 µM (inactive); in assay [19] it was 20.8 µM (inactive); in assay [4] it was 23.2 µM (inactive); in [5], 21.6 µM (inactive). The GI50 in assay [6] was 23.1 µM (inactive); in assay [7], 24.2 µM (inactive); in assay [8], 25.5 µM (inactive); in assay [9], 26.7 µM (inactive); in assay [10], 16.9 µM; in assay [11], 26.1 µM (inactive). In addition, the GI50 in assay [12] is > 100 µM (inactive); in assay [13], 31.4 µM (inactive); in [14], 19.7 µM (inactive); in assay [15], 27.4 µM (inactive); in assay [16], 27.2 µM (inactive); in assay [20], 64.1 µM (inactive). The GI50 in [18] was 20.3 µM (inactive).
Regarding `CC1(C)CC[C@]2(C)CC[C@]3(C)C(=CC[C@@H]4[C@@]5(C)CCC(=O)C(C)(C)[C@@H]5[C@H](O)C[C@]43C)[C@@H]2C1`, the GI50 was 16 µM (inactive) in [1]; 19.5 µM (inactive) in assay [2]; 17 µM (inactive) in [3]; 17 µM (inactive) in [19]; 17.8 µM (inactive) in [5]; 15.5 µM (inactive) in assay [6]. Further, the GI50 was 29.5 µM (inactive) in [7]; 16.5 µM (inactive) in assay [8]; 17.4 µM (inactive) in assay [9]; 18.6 µM in [10]; 18.1 µM (inactive) in [11]; 17.6 µM (inactive) in assay [12]. Besides, the GI50 in assay [14] was 20.3 µM (inactive); in [15], 17.8 µM (inactive); in assay [16] it was 17.7 µM (inactive); in assay [20], 15.9 µM (inactive); in [18], 16.9 µM (inactive).
For the compound `Nc1n[nH]c(CCCCCCCc2nnc(N)[nH]2)n1`, the GI50 in assay [1], in assay [2], in assay [19], in assay [4], in assay [5] and in assay [6] was > 100 µM (inactive) throughout. Moreover, the GI50 in assay [7] is > 100 µM (inactive); in assay [8], > 100 µM (inactive); in assay [10], greater than 100 µM; in assay [11] it was > 100 µM (inactive); in [12] it was > 100 µM (inactive); in assay [13] it was > 100 µM (inactive). For the same compound, the GI50 in assay [15], in assay [16], in assay [20] and in [18] was > 100 µM (inactive) each time.
Take `CCN1C(=O)C(=Cc2ccc(-c3ccccc3)cc2)C(=O)N(CC)C1=S`: the GI50 in [1] was > 100 µM (inactive); in assay [2] it was > 100 µM (inactive); in assay [3], > 100 µM (inactive); in assay [4], 71.8 µM (inactive); in assay [5], > 100 µM (inactive); in assay [6] it was > 100 µM (inactive). The GI50 in assay [7] was 35.5 µM (inactive); in assay [8] it was > 100 µM (inactive); in assay [9], > 100 µM (inactive); in [10], greater than 100 µM; in [11], > 100 µM (inactive); in assay [12] it was > 100 µM (inactive). Further, the GI50 in assay [13] is 38.5 µM (inactive); in assay [14] it was > 100 µM (inactive); in [15], > 100 µM (inactive); in assay [16] it was > 100 µM (inactive); in [20], > 100 µM (inactive); in [17], > 100 µM (inactive). Moreover, the GI50 in assay [18] was > 100 µM (inactive).
For `Nc1cc(S(=O)(=O)O)cc2cc(S(=O)(=O)O)c(/N=N/c3ccc(-c4ccc(/N=N/c5c(S(=O)(=O)O)cc6cc(S(=O)(=O)O)cc(N)c6c5O)cc4)cc3)c(O)c12`, the GI50 in [1], in assay [2], in assay [3], in assay [19], in assay [4] and in assay [5] was > 100 µM (inactive) in each case. For the same compound, the GI50 in assay [6] is > 100 µM (inactive); in assay [7], > 100 µM (inactive); in assay [9] it was > 100 µM (inactive); in [10] it was greater than 100 µM; in assay [11], > 100 µM (inactive); in [12] it was > 100 µM (inactive). Also, the GI50 in [13], in assay [14], in [15], in assay [16] and in [17] was > 100 µM (inactive) in each case.

The record behind these values is ChEMBL document CHEMBL1201862, “PubChem BioAssay data set” (2004).
